Results: ChEMBL document CHEMBL5257055, “Contemporary Progress and Opportunities in RNA-Targeted Drug Discovery” (ACS Med Chem Lett, 2023)
Numbered stars: 1 amine (or outer) side, 2 acyl side, 3 side chain; on linkers, the order of the positions; unused ones are H or OH. Bridge positions count the residues as written; N and C are the ends. Peptide text beside a SMILES is read from it. X1 = CCC(C)CCCCCCCCC(CC(=O)[*:1])O[*:2]

What was measured:
[1] = Binding affinity to pre-miR-200c (unknown origin) assessed as dissociation constant
[2] = Binding affinity to HCV RNA; parameters: species or system Hepacivirus hominis
[3] = Binding affinity to CUG repeat RNA (unknown origin) assessed as dissociation constant
[4] = Binding affinity to HCV IRES; parameters: species or system Hepacivirus hominis
[5] = Binding affinity to pre-mRNA (unknown origin)
[6] = Binding affinity to pre-miR-21 (unknown origin) assessed as dissociation constant
[7] = Binding affinity to pre-miR-27a (unknown origin) assessed as dissociation constant
Sulfhydryl oxidase 1 = target: T1, Sulfhydryl oxidase 1 (Homo sapiens, UniProt O00391); assay: Binding affinity to QSOX1 (unknown origin) assessed as dissociation constant
T1 sequence (O00391 whole entry): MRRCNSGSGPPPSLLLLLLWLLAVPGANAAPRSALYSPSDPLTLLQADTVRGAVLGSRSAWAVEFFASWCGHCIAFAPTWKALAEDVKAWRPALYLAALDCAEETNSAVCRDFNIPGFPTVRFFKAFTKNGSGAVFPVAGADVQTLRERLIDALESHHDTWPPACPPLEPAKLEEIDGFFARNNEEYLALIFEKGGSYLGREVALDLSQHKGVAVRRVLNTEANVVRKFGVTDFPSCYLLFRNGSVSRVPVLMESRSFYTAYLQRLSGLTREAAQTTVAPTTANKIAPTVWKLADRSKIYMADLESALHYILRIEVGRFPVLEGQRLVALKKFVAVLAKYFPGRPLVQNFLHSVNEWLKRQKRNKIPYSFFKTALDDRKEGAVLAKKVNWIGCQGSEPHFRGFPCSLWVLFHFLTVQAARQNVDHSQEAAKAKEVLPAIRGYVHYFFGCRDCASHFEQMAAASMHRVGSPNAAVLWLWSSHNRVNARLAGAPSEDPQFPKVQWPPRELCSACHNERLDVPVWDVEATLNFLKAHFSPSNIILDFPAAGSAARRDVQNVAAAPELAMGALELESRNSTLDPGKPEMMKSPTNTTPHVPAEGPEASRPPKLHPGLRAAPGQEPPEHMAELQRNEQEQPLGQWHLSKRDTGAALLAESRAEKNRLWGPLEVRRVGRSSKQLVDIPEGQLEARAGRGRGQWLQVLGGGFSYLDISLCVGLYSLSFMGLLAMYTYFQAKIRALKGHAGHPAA

[8] = Binding affinity to HIV-1 RNA assessed as dissociation constant; parameters: species or system Human immunodeficiency virus 1
[9] = Binding affinity to r(AUUCA) repeat RNA (unknown origin) assessed as dissociation constant
[10] = Binding affinity to mouse MALAT1 assessed as dissociation constant
[11] = Binding affinity to XIST RNA (unknown origin)
[12] = Binding affinity to SARS-CoV-2 Attenuator hairpin RNA by MST assay; parameters: species or system Severe acute respiratory syndrome coronavirus 2
[13] = Binding affinity to pre-miR-96 (unknown origin) assessed as dissociation constant
[14] = Binding affinity to pre-miR-210 (unknown origin) assessed as dissociation constant
[15] = Binding affinity to CGG repeat RNA (unknown origin) assessed as dissociation constant
FMN riboswitch = assay: Binding affinity to Escherichia coli FMN riboswitch RNA assessed as dissociation constant; assay type: nucleic-acid assay
[16] = Binding affinity to CAG repeat RNA (unknown origin) assessed as dissociation constant
[17] = Binding affinity to pre-miR-544 (unknown origin) assessed as dissociation constant
[18] = Binding affinity to preQ1

Structure (SMILES): O=C(Nc1ccc(C2=NCCN2)cc1)c1cc(C(=O)Nc2ccc(C3=NCCN3)cc2)cc(C(=O)Nc2ccc(C3=NCCN3)cc2)c1
- Kd [1]: 1100 nM
- Kd [2]: 849 nM

Structure (SMILES): NC(=O)CNC(=O)[C@H](Cc1ccc(Cl)cc1)NC(=O)c1ccc2nc(-c3ccccc3)[nH]c2c1
- Kd [3]: 6300 nM

Structure (SMILES): O=C(NCCN1CCCC1)c1ccc2oc(C(=O)c3cc(O)c(O)c(O)c3)cc2c1
- Kd [4]: 360 nM

Structure (SMILES): O=C1c2c(O)ccc(O)c2C(=O)c2c(NCCNCCO)ccc(NCCNCCO)c21 [MITOXANTRONE]
- Kd [5]: < 1000 nM
- Kd [6]: 33 nM

Structure (SMILES): Cc1ccc(C(=O)N2Cc3ccccc3C[C@H]2C(N)=O)cc1NCc1c(F)ccc(O)c1F
- Kd [7]: 94 nM

Structure (SMILES): CCC(C)CCCCCCCCC1CC(=O)N[C@@H](CCC(=O)O)C(=O)N[C@@H](CC(C)C)C(=O)N[C@@H](CC(C)C)C(=O)N[C@@H](C(C)C)C(=O)N[C@@H](CC(=O)O)C(=O)N[C@@H](CC(C)C)C(=O)N[C@@H](CC(C)C)C(=O)O1 (stereo partly drawn) (ELLVDLL; linker N-C via X1)
- Kd [6]: 780 nM

Structure (SMILES): C#CCCC1(CCC(=O)N(C)[C@@H]2CC[C@H](c3ccc(Cl)c(Cl)c3)c3ccccc32)N=N1
- Kd (Sulfhydryl oxidase 1): 16000 nM

Structure (SMILES): CN(C)CC1COc2ccc3nc4n(c3c2C1)CC(CN(C)C)CN4 (stereo not drawn)
- Kd [4]: 720 nM

Structure (SMILES): C#CCCC1(CCC(=O)Nc2ccc(OC)c(OCc3cn4ccccc4n3)c2)N=N1
- Kd [6]: 256 nM

Structure (SMILES): CC(=O)c1c(C)c2cnc(Nc3ccc(N4CCNCC4)cn3)nc2n(C2CCCC2)c1=O [PALBOCICLIB]
- Kd [8]: 104 nM

Structure (SMILES): CN(C)c1nc(N)c(C(=O)NC(=N)N)nc1C#Cc1ccccc1
- Kd [4]: 520 nM

Structure (SMILES): N=C(N)c1ccc(-c2ccc(-c3ccc(C(=N)N)cc3)o2)cc1 [FURAMIDINE]
- Kd [9]: 170 nM
- Kd [10]: 560 nM

Structure (SMILES): c1ccc(COc2cccc(-c3ccc4[nH]nc(-c5nc6ccccc6[nH]5)c4c3)c2)cc1
- Kd [11]: 400 nM

Structure (SMILES): CNc1nc(Nc2cccc(C(=O)O)c2)nc2ccccc12
- Kd [12]: 11 nM

Structure (SMILES): CN1CCN(c2ccc3nc(-c4ccc5[nH]c(-c6cccc(OCCCC(=O)NCCCN=[N+]=[N-])c6)nc5c4)[nH]c3c2)CC1
- Kd [13]: 1500 nM
- Kd [14]: 1700 nM
- Kd [3]: 150 nM
- Kd [15]: 375 nM

Structure (SMILES): CNc1ncc(CN2CCCC(c3nc(O)cc(-c4cccs4)n3)C2)cn1 (stereo not drawn)
- Kd (FMN riboswitch): 16 nM

Structure (SMILES): N#Cc1c(N2CCCC2)nc(N)c2c(N)nc(N3CCCC3)cc12
- Kd [3]: 125 nM
- Kd [16]: 1400 nM
- Kd [17]: 1000 nM

Structure (SMILES): COc1ccc(-c2cnc(NCc3cccc(OC)c3)n2C)cc1
- Kd [10]: 2900 nM

Structure (SMILES): NCCOc1ccc2oc3ccccc3c2c1
- Kd [18]: 500 nM

Structure (SMILES): C#CCN(CC(N)=O)C(=O)C[C@@H](Cc1c[nH]c2ccccc12)NC(=O)[C@H]1CC(NC(=O)Cn2c(=O)[nH]c3ccccc3c2=O)CN1 (stereo partly drawn)
- Kd [7]: 90 nM
